Assay [1] concerns the target Myeloid Cell Leukemia 1 (Mcl-1) (Homo sapiens, UniProt Q07820). In words: biochemical. To be noted: HTRF Ki (nM). In kind it is binding. (Time-resolved FRET reads energy transfer from a long-lived donor to a nearby acceptor.)
Another assay has as its system MOLP8 cell line. Put plainly: MOLP8 CellEvent Caspase-3/7 Green live-cell IncuCyte apoptosis assay. The class given is cell-based, human. To be noted: averaged values.
Assay [2] has as its system MOLP-8 human multiple myeloma cell line. Put plainly: MOLP8 Caspase-Glo 3/7 luminescent assay. The class given is cell-based. To be noted: averaged over all runs on all batches.
Where [3] appears, read: read-out: MOLP8 Caspase 3/7 AC50 at 6 h, MOLP8 cells, 6 h.
[4] abbreviates: read-out: MOLP8 Caspase 3/7 AC50 at 12 h, MOLP8 cells, 12 h.
Setting [5] is: read-out: MOLP8 Caspase 3/7 AC50 at 22 h, MOLP8 cells, 22 h.
[6] abbreviates: Homo sapiens, MOLP-8, 2 h, read-out: MOLP8 Caspase-Glo AC50 (nM), MOLP8 cells, 2 hours incubation.
Setting [7] is: MOLP8 cells, 2 hours incubation, read-out: MOLP8 Caspase-Glo AC50.
[8] abbreviates: Homo sapiens, MOLP-8, 6 h, read-out: MOLP8 Caspase 3/7 AC50 at 6 h (μM), MOLP8 cells, 6 h.
Setting [9] is: Homo sapiens, MOLP-8, 12 h, read-out: MOLP8 Caspase 3/7 AC50 at 12 h (μM), MOLP8 cells, 12 h.
[10] abbreviates: Homo sapiens, MOLP-8, 22 h, read-out: MOLP8 Caspase 3/7 AC50 at 22 h (μM), MOLP8 cells, 22 h.

A word on the Ki: it is a dissociation constant, usually derived from enzyme kinetics or from competition with a known ligand. A high value points to a looser hold on the target.

Values joined by “and” are separate entries in the source; they are usually repeats but may differ in a detail not shown here. Equal entries are not always repeated. Where two headings read alike, the source gives them in different places.

Myeloid Cell Leukemia 1 (Mcl-1), sequence (Q07820 whole entry): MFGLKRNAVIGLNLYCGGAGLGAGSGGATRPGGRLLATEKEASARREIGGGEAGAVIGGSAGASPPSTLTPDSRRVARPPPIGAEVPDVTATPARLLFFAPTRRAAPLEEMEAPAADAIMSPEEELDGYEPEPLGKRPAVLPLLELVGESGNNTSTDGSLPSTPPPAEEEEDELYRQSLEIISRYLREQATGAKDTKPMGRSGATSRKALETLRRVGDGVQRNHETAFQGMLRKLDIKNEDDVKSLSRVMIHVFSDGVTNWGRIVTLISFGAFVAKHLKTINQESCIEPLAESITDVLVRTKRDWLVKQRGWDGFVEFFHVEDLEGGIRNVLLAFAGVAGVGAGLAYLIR

`Cc1nn(CCO)c2c1-c1c(Cl)ccc3c(c(C(=O)O)n(C)c13)CCCOc1cc(cc3ccccc13)SCc1cc(nn1C)CN(C)C2` (single isomer, unassigned) [Compound 40]: the Ki in assay [1] is 2.48 nM and 2.61 nM. Besides, the AC50 in the assay with MOLP8 cell line (setting [3]) is ~26.3 µM; with MOLP8 cell line (setting [4]) it was > 30.2 µM; in the assay with MOLP8 cell line (setting [5]), ~15.6 µM; in assay [2] (setting [6]) it was 10700 nM.

As to `Cc1nn(CCN2CCOCC2)c2c1-c1c(Cl)ccc3c(c(C(=O)O)n(C)c13)CCCOc1cc(cc3ccccc13)SCc1cc(nn1C)CN(C)C2` (single isomer, unassigned) [Compound 41], the Ki in assay [1] is 0.05 nM and 0.03 nM. For the same molecule, the AC50 in the assay on MOLP8 cell line (setting [3]) came to 0.19 µM; with MOLP8 cell line (setting [4]), 0.2 µM; in the assay with MOLP8 cell line (setting [5]), 0.18 µM; in assay [2] (setting [7]), 72 nM.

For `Cc1nn(CCN2CCOCC2)c2c1-c1c(Cl)ccc3c(c(C(=O)O)n(C)c13)CCCOc1cc(cc3ccccc13)SCc1cc(nn1C)CN(C)C2` (single isomer, unassigned) [Compound 42], in assay [1], the Ki was 0.79 nM. In addition, the AC50 in the assay with MOLP8 cell line (setting [3]) amounted to 2.96 µM; in the assay on MOLP8 cell line (setting [4]), 3.18 µM; in the assay on MOLP8 cell line (setting [5]) it was 2.98 µM; in assay [2] (setting [7]) it was 1260 nM.

Turning to `Cc1c2c(nn1C)CSCc1cc(n[nH]1)CSc1cc(c3ccccc3c1)OCCCc1c(C(=O)O)n(C)c3c-2c(Cl)ccc13` [Compound 3], the Ki in assay [1] is 0.08 nM and 0.11 nM. The AC50 in the assay with MOLP8 cell line (setting [8]) is 0.6 µM; in the assay with MOLP8 cell line (setting [9]) it was 0.55 µM; in the assay with MOLP8 cell line (setting [10]), 0.47 µM; in assay [2] (setting [6]), 284 nM.

Regarding `Cc1c2c(nn1C)CSCc1cc(nn1CCO)CSc1cc(c3ccccc3c1)OCCCc1c(C(=O)O)n(C)c3c-2c(Cl)ccc13` [Compound 6], the Ki in assay [1] was 0.16 nM. Also, the AC50 amounted to 0.71 µM in the assay with MOLP8 cell line (setting [8]), 0.63 µM in the assay on MOLP8 cell line (setting [9]), 0.48 µM with MOLP8 cell line (setting [10]) and 414 nM in assay [2] (setting [6]).

Consider `COCCn1nc2cc1CSc1cc(c3ccccc3c1)OCCCc1c(C(=O)O)n(C)c3c(c(Cl)ccc13)-c1c(nn(C)c1C)CSC2` [Compound 10], for which, in assay [1], the Ki came out at 0.11 nM. Besides, the AC50 in the assay on MOLP8 cell line (setting [8]) worked out at 0.2 µM; with MOLP8 cell line (setting [9]) it was 0.22 µM; in the assay with MOLP8 cell line (setting [10]), 0.21 µM; in assay [2] (setting [6]) it was 49 nM.

Take `Cc1c2c(nn1C)CSCc1cc(nn1CC1CCOCC1)CSc1cc(c3ccccc3c1)OCCCc1c(C(=O)O)n(C)c3c-2c(Cl)ccc13` [Compound 11]: the Ki in assay [1] was 0.47 nM and 0.43 nM. For the same molecule, the AC50 in the assay on MOLP8 cell line (setting [8]) came out at 0.37 µM; in the assay with MOLP8 cell line (setting [9]), 0.43 µM; in the assay with MOLP8 cell line (setting [10]), 0.41 µM; in assay [2] (Homo sapiens, MOLP-8, 2 h, MOLP8 cells, 2 hours incubation, read-out: MOLP8 Caspase-Glo AC50), 385 nM.

(Values after patent US20230021562A1, “[…] D[…]-1 INHIBITORS” (priority 2019, published 2023).)
